Starred links: 1 amine or outer side, 2 acyl side, 3 side chain; linkers in the order of their positions; H or OH if unused. Non-standard residues stand in square brackets, D forms with d. Residues, ends and D or L forms follow the SMILES beside them. Groups on a side chain read outwards from the residue. *: point of attachment. C18 diacid = O=C(O)CCCCCCCCCCCCCCCCC(=O)*; γGlu = O=C(O)[C@H](CCC(=O)[*:2])N[*:1]; NMeY = CN[C@@H](Cc1ccc(O)cc1)C(=O)O; AEEA = NCCOCCOCC(=O)O; Aib = CC(C)(N)C(=O)O

The nature of this data set: Solubility in phosphate buffer pH 7.4. The method, boiled down: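 3 mg of peptide treated with 100 μL portions of 200 mM phosphate buffer pH 7.4, sonicating/vortexing up to 1 min, with further buffer added until fully dissolved. Solubility then quantified by HPLC.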

One may read the solubility as how much of the substance goes into solution per volume. Low readings indicate a poorly soluble substance, high ones a readily soluble substance. Turning to `CC[C@H](C)[C@H](NC(=O)[C@H](CO)NC(=O)[C@H](Cc1ccc(O)cc1)NC(=O)[C@H](CC(=O)O)NC(=O)[C@H](CO)NC(=O)[C@@H](NC(=O)[C@H](Cc1ccccc1)NC(=O)[C@@H](NC(=O)CNC(=O)[C@H](CCC(=O)O)NC(=O)C(C)(C)NC(=O)[C@H](Cc1ccc(O)cc1)NC)[C@@H](C)O)[C@@H](C)CC)C(=O)N[C@@H](C)C(=O)N[C@@H](CC(C)C)C(=O)N[C@@H](CC(=O)O)C(=O)N[C@@H](CCCNC(=N)N)C(=O)NC(C)(C)C(=O)N[C@@H](C)C(=O)N[C@@H](CCC(N)=O)C(=O)NC(C)(C)C(=O)N[C@@H](CCCCNC(=O)COCCOCCNC(=O)COCCOCCNC(=O)CC[C@H](NC(=O)CC[C@H](NC(=O)CCCCCCCCCCCCCCCCC(=O)O)C(=O)O)C(=O)O)C(=O)N[C@@H](Cc1ccccc1)C(=O)N[C@H](C(=O)N[C@@H](CC(N)=O)C(=O)N[C@@H](Cc1c[nH]c2ccccc12)C(=O)N[C@@H](CC(C)C)C(=O)N[C@@H](CC(C)C)C(=O)N[C@@H](C)C(=O)N[C@@H](CCC(N)=O)C(=O)N[C@@H](CCCNC(=N)N)C(=O)N1CCC[C@H]1C(=O)N[C@@H](CO)C(=O)N[C@@H](CO)C(=O)NCC(=O)N[C@@H](C)C(=O)N1CCC[C@H]1C(=O)N1CCC[C@H]1C(=O)N1CCC[C@H]1C(=O)N[C@@H](CO)C(N)=O)C(C)C` [Compound 35] (H-[NMeY][Aib]EGTFISDYSIALDR[Aib]AQ[Aib]K([AEEA-AEEA-γGlu-γGlu-C18 diacid])FVNWLLAQRPSSGAPPPS-NH2), the solubility was no less than 30 mg/mL (pH 7.4, aqueous buffer, pH 7.4 Phosphate Buffer - Solubility, 200 mM Phosphate buffer pH 7.4) and no less than 15 mg/mL (pH 7.4, solubility in phosphate buffer at pH 7.4, 200 mM phosphate buffer pH 7.4).

With `CC[C@H](C)[C@H](NC(=O)[C@H](CO)NC(=O)[C@H](Cc1ccc(O)cc1)NC(=O)[C@H](CC(=O)O)NC(=O)[C@H](CO)NC(=O)[C@@H](NC(=O)[C@H](Cc1ccccc1)NC(=O)[C@@H](NC(=O)CNC(=O)[C@H](CCC(=O)O)NC(=O)C(C)(C)NC(=O)[C@H](Cc1ccc(O)cc1)NC)[C@@H](C)O)[C@@H](C)CC)C(=O)N[C@@H](C)C(=O)N[C@@H](CC(C)C)C(=O)N[C@@H](CC(=O)O)C(=O)N[C@@H](CCCNC(=N)N)C(=O)NC(C)(C)C(=O)N[C@@H](C)C(=O)N[C@@H](CCC(N)=O)C(=O)NC(C)(C)C(=O)N[C@@H](CCCCNC(=O)COCCOCCNC(=O)COCCOCCNC(=O)CC[C@H](NC(=O)CC[C@H](NC(=O)CCCCCCCCCCCCCCCCC(=O)O)C(=O)O)C(=O)O)C(=O)N[C@@H](Cc1ccccc1)C(=O)N[C@H](C(=O)N[C@@H](CC(N)=O)C(=O)N[C@@H](Cc1c[nH]c2ccccc12)C(=O)N[C@@H](CC(C)C)C(=O)N[C@@H](CC(C)C)C(=O)N[C@@H](C)C(=O)N[C@@H](CCC(N)=O)C(=O)N[C@@H](CO)C(=O)NCC(=O)O)C(C)C` [Compound 42] (H-[NMeY][Aib]EGTFISDYSIALDR[Aib]AQ[Aib]K([AEEA-AEEA-γGlu-γGlu-C18 diacid])FVNWLLAQSG-OH), the solubility is, setting by setting: (pH 7.4) no less than 15 mg/mL; (pH 7.4, aqueous buffer) no less than 30 mg/mL.

For `CC[C@H](C)[C@H](NC(=O)[C@H](CO)NC(=O)[C@H](Cc1ccc(O)cc1)NC(=O)[C@H](CC(=O)O)NC(=O)[C@H](CO)NC(=O)[C@@H](NC(=O)[C@H](Cc1ccccc1)NC(=O)[C@@H](NC(=O)CNC(=O)[C@H](CCC(=O)O)NC(=O)C(C)(C)NC(=O)[C@H](Cc1ccc(O)cc1)NC)[C@@H](C)O)[C@@H](C)CC)C(=O)N[C@@H](C)C(=O)N[C@@H](CC(C)C)C(=O)N[C@@H](CC(=O)O)C(=O)N[C@@H](CCCNC(=N)N)C(=O)NC(C)(C)C(=O)N[C@@H](CCCCNC(=O)COCCOCCNC(=O)COCCOCCNC(=O)CC[C@H](NC(=O)CC[C@H](NC(=O)CCCCCCCCCCCCCCCCC(=O)O)C(=O)O)C(=O)O)C(=O)N[C@@H](CCC(N)=O)C(=O)NC(C)(C)C(=O)N[C@@H](CC(N)=O)C(=O)N[C@@H](Cc1ccccc1)C(=O)N[C@H](C(=O)N[C@@H](CC(N)=O)C(=O)N[C@@H](Cc1c[nH]c2ccccc12)C(=O)N[C@@H](CC(C)C)C(=O)N[C@@H](CC(C)C)C(=O)N[C@@H](C)C(=O)N[C@@H](CCC(N)=O)C(=O)N[C@@H](CO)C(=O)NCC(=O)O)C(C)C` [Compound 46] (H-[NMeY][Aib]EGTFISDYSIALDR[Aib]K([AEEA-AEEA-γGlu-γGlu-C18 diacid])Q[Aib]NFVNWLLAQSG-OH), the solubility reads like this: (pH 7.4) no less than 15 mg/mL; (pH 7.4, aqueous buffer) no less than 30 mg/mL.

As for `CC[C@H](C)[C@H](NC(=O)[C@H](CO)NC(=O)[C@H](Cc1ccc(O)cc1)NC(=O)[C@H](CC(=O)O)NC(=O)[C@H](CO)NC(=O)[C@@H](NC(=O)[C@H](Cc1ccccc1)NC(=O)[C@@H](NC(=O)CNC(=O)[C@H](CCC(=O)O)NC(=O)C(C)(C)NC(=O)[C@H](Cc1ccc(O)cc1)NC)[C@@H](C)O)[C@@H](C)CC)C(=O)N[C@@H](C)C(=O)N[C@@H](CC(C)C)C(=O)N[C@@H](CC(=O)O)C(=O)N[C@@H](CCCNC(=N)N)C(=O)NC(C)(C)C(=O)N[C@@H](CCCCNC(=O)COCCOCCNC(=O)COCCOCCNC(=O)CC[C@H](NC(=O)CC[C@H](NC(=O)CCCCCCCCCCCCCCCCC(=O)O)C(=O)O)C(=O)O)C(=O)N[C@@H](CCC(N)=O)C(=O)NC(C)(C)C(=O)N[C@@H](CC(=O)O)C(=O)N[C@@H](Cc1ccccc1)C(=O)N[C@H](C(=O)N[C@@H](CC(N)=O)C(=O)N[C@@H](Cc1c[nH]c2ccccc12)C(=O)N[C@@H](CC(C)C)C(=O)N[C@@H](CC(C)C)C(=O)N[C@@H](C)C(=O)N[C@@H](CCC(N)=O)C(=O)N[C@@H](CCCNC(=N)N)C(=O)NCC(=O)O)C(C)C` [Compound 49] (H-[NMeY][Aib]EGTFISDYSIALDR[Aib]K([AEEA-AEEA-γGlu-γGlu-C18 diacid])Q[Aib]DFVNWLLAQRG-OH), the solubility (pH 7.4) was no less than 15 mg/mL and the solubility (pH 7.4, aqueous buffer) is no less than 30 mg/mL.

For `CC[C@H](C)[C@H](NC(=O)[C@H](CO)NC(=O)[C@H](Cc1ccc(O)cc1)NC(=O)[C@H](CC(=O)O)NC(=O)[C@H](CO)NC(=O)[C@@H](NC(=O)[C@H](Cc1ccccc1)NC(=O)[C@@H](NC(=O)CNC(=O)[C@H](CCC(=O)O)NC(=O)C(C)(C)NC(=O)[C@H](Cc1ccc(O)cc1)NC)[C@@H](C)O)[C@@H](C)CC)C(=O)N[C@@H](C)C(=O)N[C@@H](CC(C)C)C(=O)N[C@@H](CC(=O)O)C(=O)N[C@@H](CCCNC(=N)N)C(=O)NC(C)(C)C(=O)N[C@@H](C)C(=O)N[C@@H](CCC(N)=O)C(=O)NC(C)(C)C(=O)N[C@@H](CC(N)=O)C(=O)N[C@@H](Cc1ccccc1)C(=O)N[C@H](C(=O)N[C@@H](CC(N)=O)C(=O)N[C@@H](Cc1c[nH]c2ccccc12)C(=O)N[C@@H](CC(C)C)C(=O)N[C@@H](CC(C)C)C(=O)N[C@@H](C)C(=O)N[C@@H](CCCCNC(=O)COCCOCCNC(=O)COCCOCCNC(=O)CC[C@H](NC(=O)CC[C@H](NC(=O)CCCCCCCCCCCCCCCCC(=O)O)C(=O)O)C(=O)O)C(=O)N[C@@H](CCCNC(=N)N)C(=O)NCC(=O)O)C(C)C` [Compound 55] (H-[NMeY][Aib]EGTFISDYSIALDR[Aib]AQ[Aib]NFVNWLLAK([AEEA-AEEA-γGlu-γGlu-C18 diacid])RG-OH), the solubility runs as follows: (pH 7.4) no less than 15 mg/mL; (pH 7.4, aqueous buffer) no less than 30 mg/mL.

`CC[C@H](C)[C@H](NC(=O)[C@H](CO)NC(=O)[C@H](Cc1ccc(O)cc1)NC(=O)[C@H](CC(=O)O)NC(=O)[C@H](CO)NC(=O)[C@@H](NC(=O)[C@H](Cc1ccccc1)NC(=O)[C@@H](NC(=O)CNC(=O)[C@H](CCC(=O)O)NC(=O)C(C)(C)NC(=O)[C@H](Cc1ccc(O)cc1)NC)[C@@H](C)O)[C@@H](C)CC)C(=O)N[C@@H](C)C(=O)N[C@@H](CC(C)C)C(=O)N[C@@H](CC(=O)O)C(=O)N[C@@H](CCCNC(=N)N)C(=O)NC(C)(C)C(=O)N[C@@H](C)C(=O)N[C@@H](CCC(N)=O)C(=O)NC(C)(C)C(=O)N[C@@H](CC(=O)O)C(=O)N[C@@H](Cc1ccccc1)C(=O)N[C@H](C(=O)N[C@@H](CC(N)=O)C(=O)N[C@@H](Cc1c[nH]c2ccccc12)C(=O)N[C@@H](CC(C)C)C(=O)N[C@@H](CC(C)C)C(=O)N[C@@H](C)C(=O)N[C@@H](CCCCNC(=O)COCCOCCNC(=O)COCCOCCNC(=O)CC[C@H](NC(=O)CC[C@H](NC(=O)CCCCCCCCCCCCCCCCC(=O)O)C(=O)O)C(=O)O)C(=O)N[C@@H](CCCNC(=N)N)C(=O)NCC(=O)O)C(C)C` [Compound 56] (H-[NMeY][Aib]EGTFISDYSIALDR[Aib]AQ[Aib]DFVNWLLAK([AEEA-AEEA-γGlu-γGlu-C18 diacid])RG-OH): the solubility runs as follows: (pH 7.4) no less than 15 mg/mL; (pH 7.4, aqueous buffer) no less than 30 mg/mL.

Turning to `CC[C@H](C)[C@H](NC(=O)[C@H](CO)NC(=O)[C@H](Cc1ccc(O)cc1)NC(=O)[C@H](CC(=O)O)NC(=O)[C@H](CO)NC(=O)[C@@H](NC(=O)[C@H](Cc1ccccc1)NC(=O)[C@@H](NC(=O)CNC(=O)[C@H](CCC(=O)O)NC(=O)C(C)(C)NC(=O)[C@H](Cc1ccc(O)cc1)NC)[C@@H](C)O)[C@@H](C)CC)C(=O)N[C@@H](C)C(=O)N[C@@H](CC(C)C)C(=O)N[C@@H](CC(=O)O)C(=O)N[C@@H](CCCNC(=N)N)C(=O)NC(C)(C)C(=O)N[C@@H](C)C(=O)N[C@@H](CCC(N)=O)C(=O)NC(C)(C)C(=O)N[C@@H](CC(=O)O)C(=O)N[C@@H](Cc1ccccc1)C(=O)N[C@H](C(=O)N[C@@H](CC(N)=O)C(=O)N[C@@H](Cc1c[nH]c2ccccc12)C(=O)N[C@@H](CC(C)C)C(=O)N[C@@H](CC(C)C)C(=O)N[C@@H](C)C(=O)N[C@@H](CCCCNC(=O)COCCOCCNC(=O)COCCOCCNC(=O)CC[C@H](NC(=O)CC[C@H](NC(=O)CCCCCCCCCCCCCCCCC(=O)O)C(=O)O)C(=O)O)C(=O)N[C@@H](CCCNC(=N)N)C(=O)NCC(=O)NCC(=O)NCC(=O)NCC(=O)N[C@@H](CO)C(N)=O)C(C)C` [Compound 57] (H-[NMeY][Aib]EGTFISDYSIALDR[Aib]AQ[Aib]DFVNWLLAK([AEEA-AEEA-γGlu-γGlu-C18 diacid])RGGGGS-NH2), the solubility by setting is: (pH 7.4) no less than 15 mg/mL; (pH 7.4, aqueous buffer) no less than 30 mg/mL.

These data come from patent US20230143604A1, “QW DOSING OF GIP RECEPTOR AGONIST PEPTIDE COMPOUNDS AND USES THEREOF” (TAKEDA PHARMACEUTICAL COMPANY LIMITED, priority 2020, published 2023).
